Laboratory results published in US8765138B2 (priority 2004, dated 2014).
In brackets after ≈: the same amount, converted by molar mass.

Key:
[1] = test system: Flu A H3N2 Wisconsin 67/2005; experiment: microbe, parasite or virus in culture; type: cell-based; details: Influenza A virus, H3N2, MDCK, read-out: Control EC50
[2] = test system: MDCK cell line; experiment: cells; type: cell-based; details: for Control IC50: ribavirin control, with Flu A H5N1

`NC(=O)c1ncn([C@@H]2O[C@H](CO)[C@@H](O)[C@H]2O)n1` [RIBAVARIN, Ribavirin] was tested, and the EC50 [1] was 1.9 µg/mL (≈ 7.78 µM), the IC50 ([2]; Canis lupus familiaris, MDCK, read-out: Control IC50) was over 320 µg/mL and the “Control IC50” value ([2]; Neutral Red) was over 320 µg/mL. The “Control IC50” value ([2]; Visual) was over 320 µg/mL.
